Values of other authors in patent US20120178771A1, “Oral Pharmaceutical Compositions of Buprenorphine and Method of Use” (priority 2008, published 2012).

Experiments:
[1] = human, in vivo
[2] = orally administered, versus placebo; pain assessed 0.5 to 6 hours

| Structure (SMILES) | dose range required to control pain in about 90% of subjects [1] [fold] | analgesia over the 6 hours, differences between the groups [2] |
| --- | --- | --- |
| CN1CC[C@]23c4c5ccc(O)c4O[C@H]2[C@@H](O)C=C[C@H]3[C@H]1C5 [morphine] | 8 | – |
| CC(=O)Nc1ccc(O)cc1 [acetaminophen (paracetamol), acetaminophen] | – | no significant differences between the groups in analgesia |
| COc1ccc2c3c1O[C@H]1C(=O)CC[C@@]4(O)[C@@H](C2)N(C)CC[C@]314 [oxycodone] | 4 | – |
